Laboratory results published in ChEMBL document CHEMBL1156829 (Proc Natl Acad Sci U S A, 2008).

Assays:
Plasmodium falciparum [1] = experiment: NOVARTIS: Inhibition of Plasmodium falciparum 3D7 (drug-susceptible) proliferation in erythrocyte-based infection assay; assay type: functional, organism-based; conditions: Plasmodium falciparum, 3D7
Plasmodium falciparum [2] = experiment: NOVARTIS: Inhibition of Plasmodium falciparum W2 (drug-resistant) proliferation in erythrocyte-based infection assay; assay type: functional, organism-based; conditions: Plasmodium falciparum, W2; read-out: EC50
[3] = NOVARTIS: Cytotoxicity against human hepatocellular carcinoma cell line (Huh7); assay type: toxicity, cell-based, Huh-7; conditions: Huh7 cells (hepatocellular carcinoma cell line)

| SMILES | EC50 (Plasmodium falciparum [1]) | EC50 (Plasmodium falciparum [2]) | CC50 [3] |
| --- | --- | --- | --- |
| COc1cc2nc(NCCN3CCOCC3)n3nc(-c4ccccc4)nc3c2cc1OC | 0.114 µM | 0.134 µM | > 10 µM |
| CC(Oc1ccc(Cl)cc1Cl)c1nc(-c2ccc(NC(=O)c3cccs3)cc2)no1 (stereo not given) | 0.429 µM | 0.631 µM | 25.6 µM |
| N#Cc1c(N)nc(SCC(=O)c2ccc(Br)cc2)c(C#N)c1-c1ccccc1 | 0.581 µM | 0.56 µM | > 56.6 µM |
| CN(C)C(=O)C1C2NC(=S)N(c3ccccc3)C1(C)Oc1ccccc12 (stereo not given) | 1.75 µM | 0.483 µM | > 10 µM |
| CCCOC(=O)C1=C(C)NC2=C(C(=O)CC(c3ccc(OC)cc3)C2)C1c1cccc(Cl)c1Cl (stereo not given) | 0.233 µM | 0.0308 µM | > 100 µM |
| CSC1=C(C#N)C(c2ccc(O)cc2)CC(=O)N1 (stereo not given) | > 9.51 µM | 3.28 µM | > 100 µM |
| CCC(c1nc2ccccc2c(=O)n1-c1ccccc1OC)N(CCc1ccccc1)C(=O)c1ccc(C)cc1 (stereo not given) | 0.418 µM | 0.174 µM | > 6.69 µM |
| COc1cccc(CCN2Cc3ccc(C(=O)NC(C)C)cc3N=C2c2cccnc2)c1 | 0.0171 µM | > 0.0423 µM | > 10 µM |
| CCN(CC)CCCN(Cc1cc2cc(OC)ccc2[nH]c1=O)C(=S)Nc1cccc(Cl)c1 | 0.798 µM | 0.809 µM | 20.5 µM |
| Oc1ccc(-c2ccnc3cc(Cl)ccc23)cc1CNC1CN2CCC1CC2 (stereo not given) | 0.986 µM | < 0.0241 µM | > 10 µM |
| COc1ccccc1N1CCN(c2ccc(NC(=O)c3cccc(F)c3)cc2C(=O)N2CCCC2)CC1 | > 12.5 µM | 6.35 µM | > 100 µM |
| CCN1CCN(Cc2c(O)ccc3c(=O)c(Oc4ccccc4Br)c(C(F)(F)F)oc23)CC1 | 1.39 µM | 0.377 µM | > 100 µM |
| COc1ccc(-c2c[n+](CC(=O)c3ccccc3)c3n2CCC3)cc1 | 1.2 µM | 0.571 µM | > 100 µM |
| O=C(c1cccs1)N1CCN(c2ccccn2)CC1 | 2.02 µM | > 1.56 µM | > 10 µM |
| O=S(=O)(c1ccc(Br)s1)N1CCN(c2ccccc2)CC1 | 0.411 µM | 0.4 µM | > 10 µM |
| CCCNC(=O)N1CCC2(CC1)CC(=O)c1ccccc1O2 | > 1.25 µM | 1.77 µM | > 10 µM |
| CCCCOc1cccc(C(=O)N(Cc2cccs2)c2ccc(OC)cc2)c1 | 0.124 µM | 0.0621 µM | 6.13 µM |
| CCC(C)Nc1nc(NC(C)CC)nc(N2CCCCCC2)n1 (stereo not given) | 0.479 µM | 0.382 µM | 14.7 µM |
| Cc1cc2c(cc1C)N(C(=O)c1ccccc1)C(C)(C)c1ssc(=S)c1-2 | 0.6 µM | 0.572 µM | > 100 µM |
| N#Cc1ccccc1CN1CCC(Oc2cccc3onc(N)c23)CC1 | > 1.66 µM | 0.189 µM | 0.891 µM |
| COc1ccc(CCN2C(=O)CC(C(=O)Nc3cccc(Cl)c3)SC2=Nc2ccccc2)cc1OC (stereo not given) | 3.82 µM | 2.85 µM | > 100 µM |
| Cc1c(CN2CCC(N3CCC(C(=O)NC4CC4)CC3)CC2)[nH]c2c(Cl)cccc12 | 0.345 µM | 1.4 µM | 56.5 µM |
| CCCCCCCCCC(=O)N(C)CCCNc1ccnc2cc(Cl)ccc12 | 0.126 µM | 0.206 µM | 5.71 µM |
| CCOc1ccc(NC(=O)CSc2nncc(O)n2)cc1 | 0.859 µM | 0.473 µM | > 100 µM |
| CC(C)=CCC/C(C)=C/CCC(C)NCCN1CCNCC1 (stereo not given) | > 1.1 µM | 0.911 µM | > 10 µM |

| SMILES | EC50 (Plasmodium falciparum [1]) | EC50 (Plasmodium falciparum [2]) | CC50 [3] |
| --- | --- | --- | --- |
| Nc1nc(N)c2cc(S(=O)(=O)N3CCCC3)ccc2n1 | 0.0585 µM | > 1.25 µM | 12.9 µM |
| O=C(CCn1c(=S)oc2ccccc21)N1CCN(c2ccccc2)CC1 | > 1.25 µM | 0.0267 µM | > 10 µM |
| CCc1cccc(NC(=O)N2CCN(C(=O)c3nc(-c4ccccc4)nc(C)c3C(=O)OC(C)C)CC2C)c1 (stereo not given) | 0.719 µM | < 0.0141 µM | > 10 µM |
| COC(=O)COc1ccc(/C=C2/SC(=Nc3ccc(F)cc3)NC2=O)cc1 | > 12.5 µM | 1.85 µM | > 100 µM |
| COc1ccc(C2c3[nH]c4ccccc4c3C[C@@H]3C(=O)N(CCC(C)C)CC(=O)N23)cc1 (stereo not given in full) | > 1.25 µM | 1.11 µM | > 10 µM |
| O=C1C(=Nc2cccc(C(F)(F)F)c2)c2ccccc2N1CN1CCc2ccccc2C1 | 8.38 µM | 3.71 µM | > 100 µM |
| Cc1c[n+](Cc2ccccc2)ccc1/C=C/c1ccccc1 | 0.502 µM | 0.543 µM | > 10 µM |
| COC(OC)C(C)=NNC(N)=S | 0.00892 µM | 0.00362 µM | > 100 µM |
| CCOC(=O)C1CCN(C(c2cc3cc(OC)c(OC)cc3[nH]c2=O)c2nnnn2Cc2ccccc2)CC1 (stereo not given) | 0.419 µM | 0.158 µM | > 100 µM |
| C=CCC1C=C(Cc2ccccc2)CC(CC=C)N1 (stereo not given) | 4.31 µM | 0.188 µM | 46 µM |
| CCOc1ccc(C2N(C)c3ccccc3N2C)cc1 | 0.249 µM | 0.344 µM | > 10 µM |
| CCOc1ccccc1-n1c(N)c(C(=O)Nc2ccc(F)cc2)sc1=S | 0.968 µM | 0.23 µM | > 100 µM |
| CCc1c(C(C)S(=O)(=O)c2ccc(C)cc2)[nH]c(=O)n1-c1ccc(OC(F)(F)F)cc1 (stereo not given) | 0.0478 µM | 0.0162 µM | 5.75 µM |
| Oc1nc(-c2ccccn2)nc(C(F)(F)F)c1Br | 0.49 µM | < 0.0256 µM | > 8.27 µM |
| Brc1ccc2ncnc(NCC3CCCO3)c2c1 (stereo not given) | > 12.5 µM | 3.75 µM | > 100 µM |
| O=c1[nH]nc(SCc2c(F)cccc2[N+](=O)[O-])c(=O)[nH]1 | > 1.25 µM | > 0.695 µM | > 10 µM |
| CC(=O)c1ccc(N2C(C)c3nc4ccccc4c(=O)n3C2c2cccc(O)c2)cc1 (stereo not given) | 1.05 µM | 0.646 µM | > 10 µM |
| CCCOc1ccc(Cc2c(C)nc3ccc(Br)cc3c2O)cc1 | 1.03 µM | 1.1 µM | > 10 µM |
| O=C1NC(=S)NC1=Cc1ccc(C(F)(F)F)cc1 | > 12.5 µM | 1.92 µM | > 100 µM |
| O=C1Nc2ccccc2C1=Nc1ccccc1NS(=O)(=O)c1ccc2ccccc2c1 | > 1.25 µM | > 0.857 µM | > 10 µM |
| CCOC(=O)C1=C(C)NC2=C(C(=O)CC(c3ccc(Cl)cc3)C2)C1c1ccc(Cl)cc1 (stereo not given) | 0.0894 µM | 0.0515 µM | > 100 µM |
| O=C1C2=C(Nc3ccccc3SC2c2ccc(OCc3ccccc3)cc2)c2ccccc21 (stereo not given) | 0.479 µM | 0.103 µM | > 100 µM |
| CC(C)c1ccc(OCC(=O)NN=Cc2cccc([N+](=O)[O-])c2)cc1 | > 1.25 µM | > 1.17 µM | > 10 µM |
| O=C1CC(c2ccccc2)CC2=C1C(c1cc(F)ccc1F)Nc1ccccc1N2 (stereo not given) | 1.02 µM | 0.31 µM | > 100 µM |
| CCSc1ncnc2scc(-c3ccccc3)c12 | > 1.51 µM | 1.71 µM | > 10 µM |
